According to patent US9150519B2, “6-amino-pyrimidine-4-carboxamide derivatives and related compounds which bind to the sphingosine 1-phosphate (S1P) receptor for the treatment of multiple sclerosis” (MERCK SERONO SA, priority 2007, dated 2015):

How the values were obtained:
S1P1 = S1P1 (Homo sapiens (Human), UniProt P21453); assay: 35S-GTPγS binding assay, S1P1 membranes; format: biochemical; details: membranes from CHO cells expressing S1P1; read-out: S1P1 GTPyS EC50
Protocol: Membranes were prepared from CHO cells expressing S1P1 or S1P3 for use in ligand and […] binding studies. Cells were suspended in 50 mM TRIS, pH 7.4, 2 mM EDTA, 250 mM Sucrose (buffer A) and 1× Complete protease inhibitor cocktail (Roche), and disrupted at 4° C. by nitrogen decompression using a cell disruption bomb (Parr Instrument). Following centrifugation at 1000 RPM for 10 min at 4° C., the supernatant was suspended in buffer A and centrifuged again at 19000 RPM for 60 min at 4° C. The pellet was then suspended in 10 mM HEPES, pH 7.4, 1 mM EDTA, 250 mM Sucrose (Buffer B), and 1× Complete EDTA-free protease inhibitor cocktail and homogenized using a potter. Membranes were flash frozen in liquid nitrogen and stored at −80° C. [33P]sphingosine 1-phosphate (3000 Ci/mmol; American Radiolabeled Chemicals, Inc.) was added to test compounds in DMSO. […] Binding was performed for 60 min at room temperature on a shaker and bound radioactivity was measured on a PerkinElmer 1450 MicroBeta counter. Specific binding was calculated by subtracting remaining radioactivity in the presence of 1000-fold excess of unlabeled S1P. Binding data were analyzed using the GraphPad Prism program.
(§1) The assay was initiated with the addition of 20 μl of 1.5 nM [35S]-GTPγS (1100 Ci/mmol; GE Healthcare) in assay buffer. After 60 min incubation at 30° C. on a shaker, plates were centrifuged for 10 min at 2000 RPM. Supernatant was discarded and membrane bound radioactivity was measured on a PerkinElmer 1450 MicroBeta counter. Triplicate samples were averaged and expressed as % response relative to SIP activation in absence of compound (n=2).

S1P3 = S1P3 (Homo sapiens (Human), UniProt Q99500); assay: 35S-GTPγS binding assay, S1P3 membranes; format: biochemical; details: membranes from CHO cells expressing S1P3; read-out: S1P3 GTPyS EC50
S1P3, sequence (Q99500 whole entry, species assumed): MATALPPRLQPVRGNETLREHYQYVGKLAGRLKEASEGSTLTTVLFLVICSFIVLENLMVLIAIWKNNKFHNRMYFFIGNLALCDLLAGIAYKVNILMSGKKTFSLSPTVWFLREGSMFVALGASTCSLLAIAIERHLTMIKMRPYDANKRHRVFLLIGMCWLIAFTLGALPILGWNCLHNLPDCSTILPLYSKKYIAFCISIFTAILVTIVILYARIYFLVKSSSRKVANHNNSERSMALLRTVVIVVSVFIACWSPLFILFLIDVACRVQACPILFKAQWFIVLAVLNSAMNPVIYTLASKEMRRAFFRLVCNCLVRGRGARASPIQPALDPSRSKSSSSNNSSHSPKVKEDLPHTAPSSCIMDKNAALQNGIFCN
Protocol: Membranes were prepared from CHO cells expressing S1P1 or S1P3 for use in ligand and […] binding studies. Cells were suspended in 50 mM TRIS, pH 7.4, 2 mM EDTA, 250 mM Sucrose (buffer A) and 1× Complete protease inhibitor cocktail (Roche), and disrupted at 4° C. by nitrogen decompression using a cell disruption bomb (Parr Instrument). Following centrifugation at 1000 RPM for 10 min at 4° C., the supernatant was suspended in buffer A and centrifuged again at 19000 RPM for 60 min at 4° C. The pellet was then suspended in 10 mM HEPES, pH 7.4, 1 mM EDTA, 250 mM Sucrose (Buffer B), and 1× Complete EDTA-free protease inhibitor cocktail and homogenized using a potter. Membranes were flash frozen in liquid nitrogen and stored at −80° C. [33P]sphingosine 1-phosphate (3000 Ci/mmol; American Radiolabeled Chemicals, Inc.) was added to test compounds in DMSO. Membranes and WGA SPA beads (GE Healthcare) were added to give a final volume of 100 μl in 96-well plates with assay concentrations of […] [33P]sphingosine 1-phosphate (respectively for S1P1 or S1P3), 50 mM HEPES, pH 7.5, 5 mM MgCl2, 100 mM NaCl, 0.4% fatty acid-free BSA, 1-5 μg/well of proteins and 100 μg/well of WGA SPA beads. Binding was performed for 60 min at room temperature on a shaker and bound radioactivity was measured on a PerkinElmer 1450 MicroBeta counter. Specific binding was calculated by subtracting remaining radioactivity in the presence of 1000-fold excess of unlabeled S1P. Binding data were analyzed using the GraphPad Prism program.
as §1, with “Measurements of ^35S-GTPγS Binding: Membranes (1 to 10 μg protein) prepared as described above, were incubated in 96-well Scintiplates (PerkinElmer) with test compounds diluted in DMSO, in 180 μl of 20 mM HEPES, pH 7.4, 10 mM MgCl2, 2 μg/well Saponin, 0.2% fatty acid free BSA (Assay buffer), 140 mM NaCl and 1.7 μM GDP. The” for “The”

S1P1, sequence (P21453 whole entry, species assumed): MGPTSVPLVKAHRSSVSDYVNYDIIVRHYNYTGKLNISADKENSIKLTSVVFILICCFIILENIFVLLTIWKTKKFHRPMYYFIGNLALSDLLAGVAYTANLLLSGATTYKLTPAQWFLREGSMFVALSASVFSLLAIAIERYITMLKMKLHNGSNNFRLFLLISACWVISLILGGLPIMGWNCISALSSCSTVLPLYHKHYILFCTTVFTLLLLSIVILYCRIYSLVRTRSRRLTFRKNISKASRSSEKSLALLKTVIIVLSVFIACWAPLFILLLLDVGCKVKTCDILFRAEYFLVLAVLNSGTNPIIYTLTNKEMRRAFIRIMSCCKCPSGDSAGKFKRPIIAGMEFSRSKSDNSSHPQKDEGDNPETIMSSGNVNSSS

Compound | EC50 (S1P1) | EC50 (S1P3)
CN(c1cc(C(=O)Nc2ccc(S(=O)(=O)NCC(O)CO)cc2)ncn1)C1CCCCC1 (stereo not shown) [Example 1-40] | 1520 nM | > 20000 nM
Cc1cc(O)ccc1NC(=O)c1cc(N(CC2CC2)C2CCCCC2)ncn1 [Example 1-33] | 24.6 nM | 100000 nM
Cc1cc(S(N)(=O)=O)ccc1NC(=O)c1cc(N(CC(C)C)C2CCCC2)ncn1 [Example 1-58] | 39 nM | > 20000 nM

The remaining lines, values ahead:

EC50 (S1P1) | EC50 (S1P3) | Compound
2 nM | 47500 nM | Cc1cc(S(N)(=O)=O)ccc1NC(=O)c1cc(N(CC2CC2)C2CCCCC2)ncn1 [Example 1-38]
5.8 nM | 2470 nM | CNS(=O)(=O)c1ccc(NC(=O)c2cc(N(CC3CC3)C3CCCCC3)ncn2)c(C)c1 [Example 1-105]
